# According to US20260021106A1, “COMBINATION THERAPY FOR TREATING CANCERS” (GEISTLICH PHARMA AG, priority 2022, published 2026):
# “Also recorded” adds a separate entry of the source.
# Key:
# [1] = system: human endothelial cell (hEC) spheroids; assay: Spheroid assay, VEGF-induced endothelial sprouting; assay type: cell-based
# Description: A spheriod assay was performed including growing human endothelial cell (hEC) spheroids and adding VEGF (1000 cells/spheroid; 200 sph/condition) for 24 hours using a hanging drog procedure with methyl-cellulose, then harvesting, adding GP-2250, and suspending in fibrinogen/thrombin matrix. The suspension was then transferred to a 24 well plate and incubated for 24 hours at 37° C. FIG. 1: VEGF-induced Endothelial Sprouting: Impact of GP-2250, Spheroid assay. […] Tip cells form sprouts, and stalk cells form capillary lumen as shown in the image (bottom).
# FIG. 4 quantifies the effects of PBS control, Delta-like 4 (DLL4), and GP-2250 (at 2.5 μg/ml or at 10 μg/ml) on VEGF-induced endothelial cell sprouting.
# OVCAR8-L = assay: In vivo therapy experiment, orthotopic OVCAR8-L ovarian cancer mouse model; set-up: species or system mice; details: GP-2250 500 mg/kg 3 times per week, bevacizumab 6.25 mg/kg, take down day 49
# Description: FIG. 5 schematically illustrates the experimental design for in vivo testing of the GP-2250 and bevacizumab on OVCAR8-L mice. The experiment includes testing: 1) IgG control (10 mice, 6.25 mg/kg, BW); 2) GP-2250 (10 mice, 500 mg/kg. 3 times per week); 3) Bevacizumab (10 mice, 6.25 mg/kg, BW) (“BEV”); and 4) the combination of GP-2250 and Bevacizumab.
# Tumorigenicity of OVCAR8-L was determined using IVIS imaging. IVIS imaging following OCVAR8-L injection. 1×10^6 cells were injected through i.p., and then tumorigenicity was measured. All mice were injected with high-grade ovarian cancer cells (OVCAR8) labeled with luciferase gene by i.p. route. All mice survived until the end of the study. No mice were euthanized due to the effect of tumor. Five weeks after treatment, all mice were euthanized, body weight was measured, and no significant body weight change in each group.
# (§1) In vivo model of ovarian cancer: Pharmacodynamic study and therapeutic experiment using OVCAR8 ovarian cancer model were performed. FIGS. 8A-8B show the cytotoxic effect of GP-2250 on ovarian cancer cells.
# VEGF = VEGF secretion in cancer cells; assay type: cell-based; details: compared to vehicle
# Excerpt: (§2) GP-2250 inhibits mTOR, AKT and HIF-1α expression.
# HIF1α = assay: Western blotting of ovarian cancer cells, HIF1α; assay type: cell-based, human; details: treated 24 hours, Western blot
# Description: as §2
# (§3) Human Ovarian cancer cell lines: A2780, Coav3, HeyA8, HeyA8-MDR, Kuramochi, OVCAR3, OVCAR5, OVCAR8, and SKOV3 were obtained and used in studies.
# (§4) In vitro assays: Cell viability assay, Western blotting, Colony formation assay, Reverse-phase protein array, and Ultra-high resolution mass spectrometry analysis were performed.
# mTOR [2] = assay: Western blotting of ovarian cancer cells, mTOR; assay type: cell-based, human; details: treated 24 hours, Western blot
# Description: as §2, §3, §4
# AKT [3] = assay: Western blotting of ovarian cancer cells, AKT; assay type: cell-based, human; details: treated 24 hours, Western blot
# Description: as §2, §3, §4
# [4] = system: hypoxia-inducible factor-la; assay: Reverse Phase Protein Array (RPPA), HIF-1α; assay type: cell-based, human
# Description: as §4
# AKT [5] = assay: Reverse Phase Protein Array (RPPA), AKT; assay type: cell-based, human
# Description: as §4
# mTOR [6] = assay: Reverse Phase Protein Array (RPPA), mTOR; assay type: cell-based, human
# Description: as §4
# ovarian cancer cells = assay: Cell viability assay / cytotoxic effect in ovarian cancer cell lines; assay type: cell-based, human
# Description: as §3, §4, §1
# hexokinase 2 = assay: Hexokinase activity and expression (ultra-high resolution mass spectrometry, FIG. 10); assay type: cell-based, human
# Description: as §4
# (§5) (ns, not significant, **P<0.01; **P<0.001 (vs. control; Student t-test)).
# cancer cells = assay: Glycolysis and ATP synthesis in cancer cells; assay type: cell-based
# Excerpt: as §5
# AKT [7] = assay: In vivo pharmacodynamic experiment, OVCAR8 mouse model, AKT; details: dose of 500 mg/kg
# Description: as §1
# (§6) FIGS. 11A-11B show pharmacodynamics studies of GP-2250.
# mTOR [8] = assay: In vivo pharmacodynamic experiment, OVCAR8 mouse model, mTOR; details: dose of 500 mg/kg
# Description: as §1, §6
# [9] = 2.5 μg/ml or 10 μg/ml, compared to control
molecule,measurement,setting,value
O=S1(=O)CCOCN1 [GP-2250],number of sprouts per spheroid,[1]; [9],statistically significant reductions
same,total sprout length,[1]; [9],statistically significant reductions
same,VEGF-induced endothelial cell sprouting,"[1]; GP-2250 10 μg/ml, 24 hours",inhibits VEGF-induced endothelial cell sprouting
same,nodules (tumor nodule number),OVCAR8-L,2.9±0.48
same,tumor weight,OVCAR8-L,2.9 ± 0.48 g
same,VEGF secretion in cancer cells,VEGF,significantly reduced VEGF secretion
same,HIF1α expression in cancer cells,HIF1α,reduced HIF1α expression
same,mTOR expression,mTOR [2],inhibits
same,AKT expression,AKT [3],inhibits
same,hypoxia-inducible factor-la activation and expression level,[4],inhibited
same,AKT activation and expression level,AKT [5],inhibited
same,mTOR activation and expression level,mTOR [6],inhibited
same,apoptosis in ovarian cancer cells,ovarian cancer cells,increased apoptosis
same,proliferation in ovarian cancer cells,ovarian cancer cells,reduced proliferation
same,cancer cell viability,"ovarian cancer cells; FIG. 10D, with siRNA targeting hexokinase 1 and hexokinase 2",reduces cancer cell viability
same,"cytotoxic effect, vulnerability of HRD versus HRP ovarian cancer cells","ovarian cancer cells; HRD (Kuramochi, OVCAR4, OVCAR8) vs HRP (A2780, OVCAR5), 10 ovarian cancer cell lines",more vulnerable to GP-2250 than Homologous Recombination Proficiency (HRP) ovarian cancer cells
same,hexokinase activity and protein expression levels,hexokinase 2; FIG. 10C,inhibits hexokinase activity and protein expression levels
same,hexokinase 2 activity and expression,hexokinase 2; ultra-high resolution mass spectrometry (HRMS) analysis,significantly reduced
same,ATP synthesis in cancer cells,cancer cells,reduced
same,glycolysis in cancer cells,cancer cells,decreases glycolysis; also recorded: reduced glycolysis
same,downregulating AKT activation and expression,AKT [7],most effective
same,downregulating mTOR activation and expression,mTOR [8],most effective
bevacizumab: recombinant humanized monoclonal IgG1 antibody that specifically binds to and blocks the biological effects of VEGF [reference compound],nodules (tumor nodule number),OVCAR8-L,3.8±0.71
same,tumor weight,OVCAR8-L,0.43 ± 0.08 g
